Test results: US20240124432A1, “HERBICIDAL COMPOUNDS” (SYNGENTA CROP PROTECTION AG, priority 2020, published 2024)

Key:
Format in all cases: in vivo
[1] = system: ECHCG; test: Pre-emergence biological efficacy; conditions: Echinochloa crus-galli, 312 h, evaluated after 13 days, read-out: damage to plant (100=total damage to plant; 0=no damage to plant)
Method in brief: (§1)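 Pre-emergence spray applied one day after sowing in standard soil, compound delivered from an IF50-based emulsifiable formulation diluted in 0.2% Genapol XO80. Plants then grew under glasshouse conditions for 13 days before damage was rated on a 0 (none) to 100 (total) scale.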

[2] = system: LOLPE; test: Pre-emergence biological efficacy; conditions: Lolium perenne, 312 h, evaluated after 13 days, read-out: damage to plant (100=total damage to plant; 0=no damage to plant)
Method in brief: as §1

[3] = system: EPHHL; test: Pre-emergence biological efficacy; conditions: Euphorbia heterophylla, 312 h, evaluated after 13 days, read-out: damage to plant (100=total damage to plant; 0=no damage to plant)
Method in brief: as §1

[4] = system: IPOHE; test: Pre-emergence biological efficacy; conditions: Ipomoea hederacea, 312 h, evaluated after 13 days, read-out: damage to plant (100=total damage to plant; 0=no damage to plant)
Method in brief: as §1

[5] = system: SETFA; test: Pre-emergence biological efficacy; conditions: Setaria faberi, 312 h, evaluated after 13 days, read-out: damage to plant (100=total damage to plant; 0=no damage to plant)
Method in brief: as §1

[6] = system: AMAPA; test: Pre-emergence biological efficacy; conditions: Amaranthus palmeri, 312 h, evaluated after 13 days, read-out: damage to plant (100=total damage to plant; 0=no damage to plant)
Method in brief: as §1

[7] = system: ECHCG; test: Post-emergence biological efficacy; conditions: Echinochloa crus-galli, 312 h, evaluated after 13 days, read-out: damage to plant (100=total damage to plant; 0=no damage to plant)
Method in brief: (§2)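 Pot-grown plants were raised 14 days in a glasshouse (24/19 °C day/night, 16 h light), then sprayed post-emergence with an aqueous dilution of a 50 g/l IF50 formulation stock in 0.2% Genapol XO80. They were kept at 24/18 °C, 15 h light, 50% humidity, and visually scored for damage after 13 days (0 = none, 100 = total).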

[8] = system: LOLPE; test: Post-emergence biological efficacy; conditions: Lolium perenne, 312 h, evaluated after 13 days, read-out: damage to plant (100=total damage to plant; 0=no damage to plant)
Method in brief: as §2

[9] = system: DIGSA; test: Post-emergence biological efficacy; conditions: Digitaria sanguinalis, 312 h, evaluated after 13 days, read-out: damage to plant (100=total damage to plant; 0=no damage to plant)
Method in brief: as §2

[10] = system: ELEIN; test: Post-emergence biological efficacy; conditions: 312 h, evaluated after 13 days, read-out: damage to plant (100=total damage to plant; 0=no damage to plant)
Method in brief: as §2

[11] = system: EPHHL; test: Post-emergence biological efficacy; conditions: Euphorbia heterophylla, 312 h, evaluated after 13 days, read-out: damage to plant (100=total damage to plant; 0=no damage to plant)
Method in brief: as §2

[12] = system: IPOHE; test: Post-emergence biological efficacy; conditions: Ipomoea hederacea, 312 h, evaluated after 13 days, read-out: damage to plant (100=total damage to plant; 0=no damage to plant)
Method in brief: as §2

[13] = system: SETFA; test: Post-emergence biological efficacy; conditions: Setaria faberi, 312 h, evaluated after 13 days, read-out: damage to plant (100=total damage to plant; 0=no damage to plant)
Method in brief: as §2

[14] = system: CHEAL; test: Post-emergence biological efficacy; conditions: Chenopodium album, 312 h, evaluated after 13 days, read-out: damage to plant (100=total damage to plant; 0=no damage to plant)
Method in brief: as §2

[15] = system: AMAPA; test: Post-emergence biological efficacy; conditions: Amaranthus palmeri, 312 h, evaluated after 13 days, read-out: damage to plant (100=total damage to plant; 0=no damage to plant)
Method in brief: as §2

CCOC(=O)C1(C)CC(c2cc(-c3nccnc3C(F)(F)F)c(F)cc2Cl)=NO1 (stereo not drawn) [Compound 1-823, Ethyl 3-[2-chloro-4-fluoro-5-[3-(trifluoromethyl)pyrazin-2-yl]phenyl]-5-methyl-4H-isoxazole-5-carboxylate]
pest or weed control at 250 g/ha [1]: 20%
pest or weed control at 250 g/ha [2]: 20%
pest or weed control at 250 g/ha [3]: 40%
pest or weed control at 250 g/ha [4]: 90%
pest or weed control at 250 g/ha [5]: 20%
pest or weed control at 250 g/ha [6]: 0%
pest or weed control at 250 g/ha [7]: 70%
pest or weed control at 250 g/ha [8]: 10%
pest or weed control at 250 g/ha [9]: 50%
pest or weed control at 250 g/ha [10]: 30%
pest or weed control at 250 g/ha [11]: 60%
pest or weed control at 250 g/ha [12]: 60%
pest or weed control at 250 g/ha [13]: 60%
pest or weed control at 250 g/ha [14]: 60%
pest or weed control at 250 g/ha [15]: 60%

CCOC(=O)C1(C)CC(c2cc(-c3cnc4ccccc4c3)c(F)cc2Cl)=NO1 (stereo not drawn) [Compound 1-439, Ethyl 3-[2-chloro-4-fluoro-5-(3-quinolyl)-phenyl]-5-methyl-4H-isoxazole-5-carboxylate]
pest or weed control at 250 g/ha [1]: 30%
pest or weed control at 250 g/ha [2]: 20%
pest or weed control at 250 g/ha [3]: 10%
pest or weed control at 250 g/ha [4]: 10%
pest or weed control at 250 g/ha [5]: 20%
pest or weed control at 250 g/ha [6]: 50%
pest or weed control at 250 g/ha [7]: 30%
pest or weed control at 250 g/ha [8]: 20%
pest or weed control at 250 g/ha [9]: 30%
pest or weed control at 250 g/ha [10]: 50%
pest or weed control at 250 g/ha [11]: 40%
pest or weed control at 250 g/ha [12]: 40%
pest or weed control at 250 g/ha [13]: 30%
pest or weed control at 250 g/ha [14]: 50%
pest or weed control at 250 g/ha [15]: 70%

CCOC(=O)C1(C)CC(c2cc(-c3cnc(C)cn3)c(F)cc2Cl)=NO1 (stereo not drawn) [Compound 1-739, Ethyl 3-[2-chloro-4-fluoro-5-(5-methylpyrazin-2-yl)phenyl]-5-methyl-4H-isoxazole-5-carboxylate]
pest or weed control at 250 g/ha [1]: 0%
pest or weed control at 250 g/ha [2]: 0%
pest or weed control at 250 g/ha [3]: 0%
pest or weed control at 250 g/ha [4]: 0%
pest or weed control at 250 g/ha [5]: 0%
pest or weed control at 250 g/ha [6]: 0%
pest or weed control at 250 g/ha [7]: 30%
pest or weed control at 250 g/ha [8]: 0%
pest or weed control at 250 g/ha [9]: 30%
pest or weed control at 250 g/ha [10]: 50%
pest or weed control at 250 g/ha [11]: 40%
pest or weed control at 250 g/ha [12]: 50%
pest or weed control at 250 g/ha [13]: 30%
pest or weed control at 250 g/ha [14]: 50%
pest or weed control at 250 g/ha [15]: 50%

CCOC(=O)C1(C)CC(c2cc(-c3cnccc3OC)c(F)cc2Cl)=NO1 (stereo not drawn) [Compound 1-259, Ethyl 3-[2-chloro-4-fluoro-5-(4-methoxy-3-pyridyl)phenyl]-5-methyl-4H-isoxazole-5-carboxylate]
pest or weed control at 250 g/ha [1]: 0%
pest or weed control at 250 g/ha [2]: 0%
pest or weed control at 250 g/ha [3]: 0%
pest or weed control at 250 g/ha [4]: 0%
pest or weed control at 250 g/ha [5]: 0%
pest or weed control at 250 g/ha [6]: 0%
pest or weed control at 250 g/ha [7]: 20%
pest or weed control at 250 g/ha [8]: 0%
pest or weed control at 250 g/ha [9]: 40%
pest or weed control at 250 g/ha [10]: 20%
pest or weed control at 250 g/ha [11]: 20%
pest or weed control at 250 g/ha [12]: 30%
pest or weed control at 250 g/ha [13]: 30%
pest or weed control at 250 g/ha [14]: 80%
pest or weed control at 250 g/ha [15]: 60%

CCOC(=O)C1(C)CC(c2cc(-c3cccnc3F)c(F)cc2Cl)=NO1 (stereo not drawn) [Compound 1-211, Ethyl 3-[2-chloro-4-fluoro-5-(2-fluoro-3-pyridyl)phenyl]-5-methyl-4H-isoxazole-5-carboxylate]
pest or weed control at 250 g/ha [1]: 0%
pest or weed control at 250 g/ha [2]: 0%
pest or weed control at 250 g/ha [3]: 0%
pest or weed control at 250 g/ha [4]: 0%
pest or weed control at 250 g/ha [5]: 0%
pest or weed control at 250 g/ha [6]: 0%
pest or weed control at 250 g/ha [7]: 20%
pest or weed control at 250 g/ha [8]: 0%
pest or weed control at 250 g/ha [9]: 10%
pest or weed control at 250 g/ha [10]: 20%
pest or weed control at 250 g/ha [11]: 30%
pest or weed control at 250 g/ha [12]: 50%
pest or weed control at 250 g/ha [13]: 20%
pest or weed control at 250 g/ha [14]: 90%
pest or weed control at 250 g/ha [15]: 100%
